Counter-ions that a name gives are not always drawn.

Data on 15 compounds can be found in patent US4439448A, “Glutamine derivatives” (Mitsubishi Chemical Industries Ltd., priority 1980, dated 1984).

Data set [1] relates to plaque forming cells in the spleen of mice. Kind of data set: TEST 2 effect on plaque forming cells in the spleen of mice inoculated with sheep red blood cells, Balb/c (Run 1). In kind it is in vivo, mouse. The settings on record: 4 weeks, intravascular sheep cells, 50 mg/kg P.O., four consecutive days. The protocol:
(§1) Mice were inoculated by intravascular or intraperitoneal administration of 1×10^8 sheep cells per animal. Each group consisted of five mice. The test drug was administered orally or intraperitoneally for four consecutive days from the day when the sheep cells were administered.

Data set [2] has the same test system. The experiment in a line: TEST 2 effect on plaque forming cells in the spleen of mice inoculated with sheep red blood cells, C3H/He (Run 2). It counts as in vivo, mouse. The settings on record: 7 weeks, I.P. sheep cells, 50 mg/kg P.O., four consecutive days. The protocol: as §1
Data set [3] relates to delayed hypersensitibity. Kind of data set: TEST 3 effects on delayed hypersensitivity (sheep red blood cell paw edema). In kind it is in vivo, mice, ddY strain. The settings on record: four consecutive days. The protocol:
Into the palms of the right rear limbs of mice (ddY strain, weighing 25-30 g) was injected 40 μl of sheep red blood cells the concentration of which was adjusted to 1×10^7 /40 μl. The test drug was administered intraperitoneally or orally for four consecutive days inclusive of the day of sheep red blood cell administration. Three days after the day of sheep red blood cell administration, 40 μl of sheep red blood cells which were adjusted to have a concentration of 5×10^8 /40 μl were administered into the palms of the left rear limbs. After 24 hours, the thickness of the palms of the right and left rear limbs was measured. The edema was expressed as the difference in thickness between the palms of the left and right rear limbs. The results are shown in FIG. 3, in which the edema in the medicated group is expressed as percent control which means the percentage of the edema found in the group in which physiological saline is applied (control group).

Data set [4] relates to ddY mice. Kind of data set: TEST 1 acute toxicity in mice. In kind it is in vivo. From the text: The test drug was suspended in aqueous 50% solution of Tween 80 and administered to ddY mice weighing 20-25 g orally or intraperitoneally in doses indicated in Table 1 below.

Take `Cn1cnc([N+](=O)[O-])c1Sc1ncnc2nc[nH]c12` [Azathioprine, reference compound]: the “PFC × 2,500/spleen (Mean ± standard error)” value was 22.8 ± 2.40 PFC × 2,500/spleen in data set [1] and 46.7 ± 1.2 PFC × 2,500/spleen in data set [2]. The “% Control (edema, percentage of that in physiological saline control group)” value in data set [3] (30 mg/kg I.P.) is 61.0%; in data set [3] (100 mg/kg P.O.), 58.2%.

As to `CCOC(=O)Cc1ccc(NC(=O)CC[C@@H](N)C(=O)O)cc1` [Compound (12), N-(4-Ethoxycarbonylmethylphenyl)-D-glutamine], the “% Control (edema, percentage of that in physiological saline control group)” value was determined as 76.1% in data set [3] (3 mg/kg I.P.); 107.9% in data set [3] (10 mg/kg I.P.); 89.1% in data set [3] (30 mg/kg I.P.); 85.4% in data set [3] (30 mg/kg P.O.); 81.7% in data set [3] (100 mg/kg P.O.); 80.7% in data set [3] (300 mg/kg P.O.).

In the case of `CCOC(=O)C(CC)c1ccc(NC(=O)CC[C@H](N)C(=O)O)cc1` (stereo partly drawn) [Compound (13), N-[4-(1-Ethoxycarbonyl-n-propyl)phenyl]-L-glutamine], in data set [4] (mouse, in vivo), the “No. of dead mice/No. of test animals” value is 0/5. For the same compound, the “% Control (edema, percentage of that in physiological saline control group)” value in data set [3] (3 mg/kg I.P.) stood at 82.1%; in data set [3] (10 mg/kg I.P.), 70.5%; in data set [3] (30 mg/kg I.P.) it was 64.2%; in data set [3] (30 mg/kg P.O.), 89.6%; in data set [3] (100 mg/kg P.O.), 87.4%; in data set [3] (300 mg/kg P.O.) it was 75.7%.

On to `CCOC(=O)C(C)(C)c1ccc(NC(=O)CC[C@H](N)C(=O)O)cc1` [Compound (14), N-[4-(1-Ethoxycarbonyl-1-methylethyl)phenyl]-L-glutamine], for which the “% Control (edema, percentage of that in physiological saline control group)” value stood at 77.3% in data set [3] (3 mg/kg I.P.), 72.6% in data set [3] (10 mg/kg I.P.) and 71.9% in data set [3] (30 mg/kg I.P.).

For the compound `CCOC(=O)C(C)c1ccc(NC(=O)CC[C@H](N)C(=O)O)cc1` (stereo partly drawn) [Compound (15), N-[4-(1-Ethoxycarbonylethyl)phenyl]-L-glutamine], the “% Control (edema, percentage of that in physiological saline control group)” value was 78.0% in data set [3] (3 mg/kg I.P.), 62.6% in data set [3] (10 mg/kg I.P.) and 67.6% in data set [3] (30 mg/kg I.P.).

In the case of `CCOC(=O)Cc1ccc(NC(=O)CC[C@H](N)C(=O)O)cc1` [Hydrochloride Compound (2)], the “% Control (edema, percentage of that in physiological saline control group)” value in data set [3] (3 mg/kg I.P.) is 79.6%; in data set [3] (10 mg/kg I.P.) it was 90.7%; in data set [3] (30 mg/kg I.P.) it was 90.0%; in data set [3] (30 mg/kg P.O.) it was 81.8%; in data set [3] (100 mg/kg P.O.) it was 75.7%; in data set [3] (300 mg/kg P.O.) it was 67.2%.

As for “N-(2-Ethoxycarbonylmethylphenyl)-L-glutamine [Compound (7)]”, the “% Control (edema, percentage of that in physiological saline control group)” value in data set [3] (3 mg/kg I.P.) worked out at 92.4%; in data set [3] (10 mg/kg I.P.), 91.1%; in data set [3] (30 mg/kg I.P.) it was 86.8%; in data set [3] (30 mg/kg P.O.), 92.8%; in data set [3] (100 mg/kg P.O.), 84.8%; in data set [3] (300 mg/kg P.O.) it was 82.3%.

For “N-(3-Ethoxycarbonylmethylphenyl)-L-glutamine [Compound (6)]”, the “% Control (edema, percentage of that in physiological saline control group)” value in data set [3] (3 mg/kg I.P.) amounted to 94.6%; in data set [3] (10 mg/kg I.P.), 83.2%; in data set [3] (30 mg/kg I.P.), 84.3%; in data set [3] (30 mg/kg P.O.), 81.1%; in data set [3] (100 mg/kg P.O.), 82.8%; in data set [3] (300 mg/kg P.O.), 83.1%.

With “N-(4-Ethoxycarbonylmethylphenyl)-L-glutamine [Compound (1)]”, the “No. of dead mice/No. of test animals” value in data set [4] (1,000 mg/kg IP, during 7 days after administration) is given as 0/5; in data set [4] (5,000 mg/kg PO, during 7 days after administration) it was 0/5. Also, the “% Control (edema, percentage of that in physiological saline control group)” value in data set [3] (3 mg/kg I.P.) is given as 85.2%; in data set [3] (10 mg/kg I.P.) it was 78.2%; in data set [3] (30 mg/kg I.P.), 91.7%; in data set [3] (30 mg/kg P.O.) it was 85.7%; in data set [3] (100 mg/kg P.O.), 76.4%; in data set [3] (300 mg/kg P.O.) it was 74.5%.

“N-(4-ethoxycarbonylmethylphenyl)-L-glutamine hydrochloride [Compound (11)]”: the “% Control (edema, percentage of that in physiological saline control group)” value was found to be 77.7% in data set [3] (3 mg/kg I.P.); 67.3% in data set [3] (10 mg/kg I.P.); 84.1% in data set [3] (30 mg/kg I.P.); 89.8% in data set [3] (30 mg/kg P.O.); 80.8% in data set [3] (100 mg/kg P.O.); 83.7% in data set [3] (300 mg/kg P.O.).

In the case of “N-(4-n-Butyloxycarbonylmethylphenyl)-L-glutamine [Compound (5)]”, the “% Control (edema, percentage of that in physiological saline control group)” value in data set [3] (3 mg/kg I.P.) stood at 91.6%; in data set [3] (10 mg/kg I.P.) it was 95.7%; in data set [3] (30 mg/kg I.P.), 72.2%; in data set [3] (30 mg/kg P.O.), 94.5%; in data set [3] (100 mg/kg P.O.), 84.7%; in data set [3] (300 mg/kg P.O.) it was 82.2%.

In the case of “N-(4-n-Propyloxycarbonylmethylphenyl)-L-glutamine [Compound (4)]”, the “% Control (edema, percentage of that in physiological saline control group)” value in data set [3] (3 mg/kg I.P.) stood at 70.4%; in data set [3] (10 mg/kg I.P.), 80.2%; in data set [3] (30 mg/kg I.P.), 91.7%; in data set [3] (30 mg/kg P.O.), 91.7%; in data set [3] (100 mg/kg P.O.) it was 91.9%; in data set [3] (300 mg/kg P.O.), 79.6%.

On to “N-[4-(2-Ethoxycarbonylethyl)phenyl]-L-glutamine [Compound (8)]”, for which the “% Control (edema, percentage of that in physiological saline control group)” value turned out to be 76.2% in data set [3] (3 mg/kg I.P.); 76.7% in data set [3] (10 mg/kg I.P.); 81.0% in data set [3] (30 mg/kg I.P.); 85.0% in data set [3] (30 mg/kg P.O.); 80.6% in data set [3] (100 mg/kg P.O.); 92.3% in data set [3] (300 mg/kg P.O.).

For the compound “N-[4-(2-Ethoxycarbonylvinyl)phenyl]-L-glutamine [Compound (10)]”, the “% Control (edema, percentage of that in physiological saline control group)” value stood at 100% in data set [3] (3 mg/kg I.P.); 101% in data set [3] (10 mg/kg I.P.); 85.8% in data set [3] (30 mg/kg I.P.); 81.3% in data set [3] (30 mg/kg P.O.); 109.9% in data set [3] (100 mg/kg P.O.); 82.6% in data set [3] (300 mg/kg P.O.).

Take “N-[4-(3-Ethoxycarbonyl-n-propyl)phenyl]-L-glutamine [Compound (9)]”: the “% Control (edema, percentage of that in physiological saline control group)” value is given as 91.3% in data set [3] (3 mg/kg I.P.); 80.2% in data set [3] (10 mg/kg I.P.); 100.6% in data set [3] (30 mg/kg I.P.); 85.3% in data set [3] (30 mg/kg P.O.); 96.7% in data set [3] (100 mg/kg P.O.); 88.9% in data set [3] (300 mg/kg P.O.).
